Biological target: T1, human ACC2 (Homo sapiens, UniProt O00763)
T1 construct: made in house; host or cells: insect cells (baculoviral expression system)
Experiment: ACC2 assay, spectrophotometric 384 well assay (NADH-linked, coupled lactate dehydrogenase/pyruvate kinase)
Assay type: biochemical
Details: ACC2 assay, hACC2 construct lacking 128 N-terminal amino acids, 25° C., 340 nm; read-out: IC50
In short: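 ADP output tracked via pyruvate kinase/lactate dehydrogenase NADH oxidation, slope at 340 nm over 15 min, 25° C, with 500 μM ATP and 200 μM each acetyl-CoA and NADH. Enzyme: insect-cell-expressed human ACC2, N-terminal 128 residues deleted; pH 7.5 Tris with citrate, KHCO3. IC50 from four-parameter regression versus vehicle and no-acetyl-CoA controls.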

T1 sequence (O00763 129-2458 limits assumed): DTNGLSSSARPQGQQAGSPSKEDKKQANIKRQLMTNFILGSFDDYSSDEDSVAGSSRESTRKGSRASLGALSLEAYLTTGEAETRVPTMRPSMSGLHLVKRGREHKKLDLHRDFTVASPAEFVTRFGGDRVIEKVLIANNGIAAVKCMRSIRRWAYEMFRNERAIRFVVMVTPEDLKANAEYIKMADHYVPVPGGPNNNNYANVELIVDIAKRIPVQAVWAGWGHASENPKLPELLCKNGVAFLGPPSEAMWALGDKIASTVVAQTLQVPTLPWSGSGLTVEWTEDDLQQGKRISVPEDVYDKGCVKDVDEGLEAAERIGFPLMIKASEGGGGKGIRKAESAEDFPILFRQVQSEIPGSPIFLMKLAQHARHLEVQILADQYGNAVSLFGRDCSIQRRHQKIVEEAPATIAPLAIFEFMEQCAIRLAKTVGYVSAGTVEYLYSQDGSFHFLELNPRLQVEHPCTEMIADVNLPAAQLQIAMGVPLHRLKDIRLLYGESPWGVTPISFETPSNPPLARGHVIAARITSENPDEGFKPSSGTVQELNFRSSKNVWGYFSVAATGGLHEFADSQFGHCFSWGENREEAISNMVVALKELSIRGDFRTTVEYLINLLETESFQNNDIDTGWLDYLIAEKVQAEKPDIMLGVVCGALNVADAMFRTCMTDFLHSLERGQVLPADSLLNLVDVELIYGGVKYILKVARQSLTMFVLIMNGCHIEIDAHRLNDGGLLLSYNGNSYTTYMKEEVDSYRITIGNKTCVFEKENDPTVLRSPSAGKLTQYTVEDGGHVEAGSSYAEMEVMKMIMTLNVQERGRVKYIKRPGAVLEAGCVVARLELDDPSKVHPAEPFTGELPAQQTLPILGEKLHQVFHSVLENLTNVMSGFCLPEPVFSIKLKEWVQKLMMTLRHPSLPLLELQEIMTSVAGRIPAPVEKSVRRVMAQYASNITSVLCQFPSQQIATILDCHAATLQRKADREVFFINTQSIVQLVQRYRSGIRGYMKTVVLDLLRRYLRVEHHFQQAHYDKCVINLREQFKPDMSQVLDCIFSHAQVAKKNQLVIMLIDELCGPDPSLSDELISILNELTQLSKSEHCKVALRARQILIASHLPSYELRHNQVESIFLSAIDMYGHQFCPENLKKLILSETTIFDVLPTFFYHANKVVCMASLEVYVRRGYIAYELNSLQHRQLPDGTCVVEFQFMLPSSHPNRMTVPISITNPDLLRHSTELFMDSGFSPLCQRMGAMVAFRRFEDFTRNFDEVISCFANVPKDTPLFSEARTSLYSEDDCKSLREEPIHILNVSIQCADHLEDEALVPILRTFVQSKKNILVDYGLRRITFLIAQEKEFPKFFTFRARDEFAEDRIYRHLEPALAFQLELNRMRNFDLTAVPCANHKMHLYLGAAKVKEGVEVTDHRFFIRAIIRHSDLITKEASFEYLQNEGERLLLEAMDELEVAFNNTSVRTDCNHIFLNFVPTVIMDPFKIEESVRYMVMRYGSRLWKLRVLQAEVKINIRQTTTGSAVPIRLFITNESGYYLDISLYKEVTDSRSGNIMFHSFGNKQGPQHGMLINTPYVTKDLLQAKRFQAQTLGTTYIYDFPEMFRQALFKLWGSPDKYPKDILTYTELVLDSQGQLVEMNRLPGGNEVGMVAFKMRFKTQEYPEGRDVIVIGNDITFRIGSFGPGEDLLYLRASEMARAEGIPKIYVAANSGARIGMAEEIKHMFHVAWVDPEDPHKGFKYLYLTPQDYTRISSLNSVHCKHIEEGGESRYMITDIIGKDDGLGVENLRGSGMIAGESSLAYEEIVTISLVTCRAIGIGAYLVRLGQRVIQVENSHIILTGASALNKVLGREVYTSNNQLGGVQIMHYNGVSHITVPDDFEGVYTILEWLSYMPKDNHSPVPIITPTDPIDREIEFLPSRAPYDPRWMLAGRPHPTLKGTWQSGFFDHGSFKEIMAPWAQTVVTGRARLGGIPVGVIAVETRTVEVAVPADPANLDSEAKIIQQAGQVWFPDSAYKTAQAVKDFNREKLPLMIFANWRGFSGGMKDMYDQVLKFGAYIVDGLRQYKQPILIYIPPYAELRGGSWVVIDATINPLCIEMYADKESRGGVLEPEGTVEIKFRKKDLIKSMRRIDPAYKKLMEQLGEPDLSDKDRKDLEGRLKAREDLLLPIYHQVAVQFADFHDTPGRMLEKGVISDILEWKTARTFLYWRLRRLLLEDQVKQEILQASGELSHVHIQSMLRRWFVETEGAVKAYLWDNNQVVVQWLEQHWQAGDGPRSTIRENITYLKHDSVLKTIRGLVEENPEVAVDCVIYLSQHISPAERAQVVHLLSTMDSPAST

| SMILES | IC50 |
| --- | --- |
| CC(=O)NC(C)Cc1ccc(C2CCN(c3ccc(OCC4CC4)cc3)CC2)cc1 (stereo not shown) [Example 2.8] | 960 nM |
| CC(=O)NC(C)Cc1ccc(C2CCN(c3ccc(OC4CC4)cc3)CC2)cc1 (stereo not shown) [Example 2.9] | 460 nM |
| CCOc1ccc(N2CCC(c3ccc(CC(C)NC(C)=O)cc3)CC2)c(C#N)c1 (stereo not shown) [Example 2.11] | 1300 nM |
| CCOc1ccc(N2CCC(c3ccc(CC(C)NC(C)=O)cc3)CC2)c(F)c1 (stereo not shown) [Example 2.12] | 530 nM |
| CC(=O)N[C@@H](C)c1ccc(C2CCN(c3cnn(Cc4ccccc4)c3)CC2)cc1 [Example 2.13] | 1900 nM |
| CC(=O)N[C@@H](C)c1ccc(C2CCN(c3ccc(Oc4ccccc4)nc3)CC2)cc1 [Example 3.1, (S)—N-{1-[4-(6′-Phenoxy-3,4,5,6-tetrahydro-2H-1,3′]bipyridinyl-4-yl)-phenyl′-ethyl}-acetamide] | 360 nM |
| COc1cc(N2CCC(c3ccc([C@H](C)NC(C)=O)cc3)CC2)ccn1 [Example 3.2] | 330 nM |
| CC(=O)N[C@@H](C)c1ccc(C2CCN(c3ccnc(OC(C)C)c3)CC2)cc1 [Example 3.3] | 110 nM |
| CCCCOc1cc(N2CCC(c3ccc([C@H](C)NC(C)=O)cc3)CC2)ccn1 [Example 3.4] | 110 nM |
| CC(=O)N[C@@H](C)c1ccc(C2CCN(c3ccnc(Oc4cncnc4)c3)CC2)cc1 [Example 3.5] | 590 nM |
| CC(=O)N[C@@H](C)c1ccc(C2CCN(c3ccc(OCC(C)C)cc3)CC2)cc1 [Example 3.7] | 740 nM |
| CCCOc1ccc(N2CCC(c3ccc([C@H](C)NC(C)=O)cc3)CC2)cc1 [Example 3.8] | 340 nM |
| CCCn1ccc(N2CCC(c3ccc([C@H](C)NC(C)=O)cc3)CC2)cc1=O [Example 3.9] | 13300 nM |
| CC(=O)N[C@@H](C)c1ccc(C2CCN(c3ccc(Oc4ccccc4)nn3)CC2)cc1 [Example 3.10] | 1600 nM |
| CCOc1ccc(N2CCC(c3ccc([C@H](C)NC(C)=O)cc3)CC2)nn1 [Example 3.11] | 3000 nM |
| CC(=O)N[C@@H](C)c1ccc(C2CCN(c3ccnc(Oc4ccccc4)c3)CC2)cc1 [Example 3.12] | 60 nM |
| CCCCOc1ccc(N2CCC(c3ccc([C@H](C)NC(C)=O)cc3)CC2)nn1 [Example 3.13] | 470 nM |
| C[C@H](NC(=O)C1CC1)c1ccc(C2CCN(c3ccnc(Oc4ccccc4)c3)CC2)cc1 [Example 3.14] | 420 nM |
| CCOc1ccc(N2CCC(c3ccc(C4(NC(C)=O)CC4)cc3)CC2)cc1 [Example 3.20] | 7400 nM |
| CC(=O)N[C@@H](C)c1ccc(C2CCN(c3ncccc3C#N)CC2)cc1 [Example 4.1, (S)—N-(1-{4-[1-(3-Cyanopyridin-2-yl)piperidin-4-yl]phenyl}ethyl)acetamide] | 2500 nM |
| CC(=O)N[C@@H](C)c1ccc(C2CCN(c3nc4ccccc4s3)CC2)cc1 [Example 4.2] | 1300 nM |
| CC(=O)N[C@@H](C)c1ccc(C2CCN(c3ccc4ccccc4n3)CC2)cc1 [Example 4.3] | 450 nM |
| CC(=O)N[C@@H](C)c1ccc(C2CCN(c3cc(C)c4ccccc4n3)CC2)cc1 [Example 4.4] | 1800 nM |
| CC(=O)N[C@@H](C)c1ccc(C2CCN(c3ccc(C#N)cn3)CC2)cc1 [Example 4.5] | 2600 nM |
| CC(=O)N[C@@H](C)c1ccc(C2CCN(c3cc(C(F)(F)F)ncn3)CC2)cc1 [Example 4.6] | 1600 nM |
| CC(=O)N[C@@H](C)c1ccc(C2CCN(c3ncnc4ccccc34)CC2)cc1 [Example 4.7] | 950 nM |

| SMILES | IC50 |
| --- | --- |
| CC(=O)N[C@@H](C)c1ccc(C2CCN(c3nc(Cl)cc4ccccc34)CC2)cc1 [Example 4.8] | 970 nM |
| CC(=O)N[C@@H](C)c1ccc(C2CCN(c3nc4ccccc4o3)CC2)cc1 [Example 4.9] | 1900 nM |
| CC(=O)N[C@@H](C)c1ccc(C2CCN(c3ccc4cc(Cl)ccc4n3)CC2)cc1 [Example 4.10] | 670 nM |
| CC(=O)N[C@@H](C)c1ccc(C2CCN(c3nccc(C(F)(F)F)n3)CC2)cc1 [Example 4.11] | 850 nM |
| CC(=O)N[C@@H](C)c1ccc(C2CCN(c3nc4ccccc4n3C)CC2)cc1 [Example 4.12] | 11600 nM |
| CC(=O)N[C@@H](C)c1ccc(C2CCN(c3ccc(C(C)C)cn3)CC2)cc1 [Example 4.13] | 3200 nM |
| CC(=O)N[C@@H](C)c1ccc(C2CCN(c3ccc4nnn(C)c4n3)CC2)cc1 [Example 4.14] | 2400 nM |
| CC(=O)N[C@@H](C)c1ccc(C2CCN(c3ccc(-c4ccccc4)cn3)CC2)cc1 [Example 4.15] | 220 nM |
| COc1ccnc(N2CCC(c3ccc([C@H](C)NC(C)=O)cc3)CC2)c1 [Example 4.16] | 1100 nM |
| CC(=O)N[C@@H](C)c1ccc(C2CCN(c3ccc(C(F)(F)F)cn3)CC2)cc1 [Example 4.17] | 440 nM |
| CC(=O)N[C@@H](C)c1ccc(C2CCN(c3cc(C(F)(F)F)ccn3)CC2)cc1 [Example 4.18] | 320 nM |
| CC(=O)N[C@@H](C)c1ccc(C2CCN(c3cccc(C(F)(F)F)n3)CC2)cc1 [Example 4.19] | 100 nM |
| CC(=O)N[C@@H](C)c1ccc(C2CCN(c3ncc4c(C)n[nH]c4n3)CC2)cc1 [Example 4.20] | 1300 nM |
| CC(=O)N[C@@H](C)c1ccc(C2CCN(c3nccc(-c4ccccc4)n3)CC2)cc1 [Example 4.21] | 520 nM |
| CC(=O)N[C@@H](C)c1ccc(C2CCN(c3cc(-c4ccccc4)ncn3)CC2)cc1 [Example 4.22] | 1100 nM |
| CC(=O)N[C@@H](C)c1ccc(C2CCN(c3nc(C)c4ccccc4n3)CC2)cc1 [Example 4.23] | 720 nM |
| CC(=O)N[C@@H](C)c1ccc(C2CCN(c3ncnc4ccsc34)CC2)cc1 [Example 4.24] | 2100 nM |
| CC(=O)N[C@@H](C)c1ccc(C2CCN(c3ccnc(C(C)C)n3)CC2)cc1 [Example 4.25] | 230 nM |
| CC(=O)N[C@@H](C)c1ccc(C2CCN(c3ccnc(C(F)(F)F)n3)CC2)cc1 [Example 4.26] | 290 nM |
| CCOc1cccc(N2CCC(c3ccc([C@H](C)NC(C)=O)cc3)CC2)n1 [Example 4.27] | 330 nM |
| CC(=O)N[C@@H](C)c1ccc(C2CCN(c3ncc4nc(-c5ccccc5)oc4n3)CC2)cc1 [Example 4.28] | 60 nM |
| CC(=O)N[C@@H](C)c1ccc(C2CCN(c3ncc(Cl)cn3)CC2)cc1 [Example 4.29] | 1700 nM |
| CC(=O)N[C@@H](C)c1ccc(C2CCN(c3noc4ccccc34)CC2)cc1 [Example 4.30] | 1100 nM |
| COc1cc2ccnc(N3CCC(c4ccc([C@H](C)NC(C)=O)cc4)CC3)c2cc1OC [Example 4.31] | 2000 nM |
| CC(=O)N[C@@H](C)c1ccc(C2CCN(c3nc4ccccc4nc3C)CC2)cc1 [Example 4.32] | 2300 nM |
| COc1cnc(N2CCC(c3ccc([C@H](C)NC(C)=O)cc3)CC2)nc1 [Example 4.33] | 510 nM |

| SMILES | IC50 |
| --- | --- |
| CC(=O)Nc1cnc(N2CCC(c3ccc([C@H](C)NC(C)=O)cc3)CC2)nc1 [Example 4.34] | 9500 nM |
| CCCc1cnc(N2CCC(c3ccc([C@H](C)NC(C)=O)cc3)CC2)nc1 [Example 4.35] | 510 nM |
| COC(=O)c1cnc(N2CCC(c3ccc([C@H](C)NC(C)=O)cc3)CC2)nc1 [Example 4.36] | 1200 nM |
| CC(=O)N[C@@H](C)c1ccc(C2CCN(c3ncc(-c4ccc(Cl)cc4)cn3)CC2)cc1 [Example 4.37] | 300 nM |
| CC(=O)N[C@@H](C)c1ccc(C2CCN(c3ncc(C(C)(C)C)cn3)CC2)cc1 [Example 4.38] | 440 nM |
| CC(=O)N[C@@H](C)c1ccc(C2CCN(c3ncc([N+](=O)[O-])cn3)CC2)cc1 [Example 4.39] | 1900 nM |
| CC(=O)N[C@@H](C)c1ccc(C2CCN(c3ncc(F)cn3)CC2)cc1 [Example 4.40] | 930 nM |
| COc1ccc(-c2cnc(N3CCC(c4ccc([C@H](C)NC(C)=O)cc4)CC3)nc2)cc1 [Example 4.41] | 100 nM |
| CCc1cnc(N2CCC(c3ccc([C@H](C)NC(C)=O)cc3)CC2)nc1 [Example 4.42] | 530 nM |
| CC(=O)N[C@@H](C)c1ccc(C2CCN(c3ncc(I)cn3)CC2)cc1 [Example 4.43, (S)—N-(1-{4-[1-(5-iodopyrimidin-2-yl)-piperidin-4-yl]-phenyl}-ethyl)-acetamide] | 410 nM |
| CC(=O)N[C@@H](C)c1ccc(C2CCN(c3ncc(Br)cn3)CC2)cc1 [Example 4.44] | 650 nM |
| CC(=O)N[C@@H](C)c1ccc(C2CCN(c3ncccn3)CC2)cc1 [Example 4.45] | 1500 nM |
| C[C@H](NC(=O)C1CC1)c1ccc(C2CCN(c3ncc4nc(-c5ccccc5)oc4n3)CC2)cc1 [Example 4.46] | 210 nM |
| C[C@H](NC(=O)N(C)C)c1ccc(C2CCN(c3ncc4nc(-c5ccccc5)oc4n3)CC2)cc1 [Example 4.47] | 80 nM |
| COC(=O)N[C@@H](C)c1ccc(C2CCN(c3ncc4nc(-c5ccccc5)oc4n3)CC2)cc1 [Example 4.48] | 130 nM |
| CCCOc1cnc(N2CCC(c3ccc([C@H](C)NC(C)=O)cc3)CC2)nc1 [Example 4.49] | 210 nM |
| CCOc1cnc(N2CCC(c3ccc([C@H](C)NC(C)=O)cc3)CC2)nc1 [Example 4.50] | 460 nM |
| CC(=O)N[C@@H](C)c1ccc(C2CCN(c3ncc(OC(C)C)cn3)CC2)cc1 [Example 4.51] | 310 nM |
| CC(=O)N[C@@H](C)c1ccc(C2CCN(c3ncc(OCC4CC4)cn3)CC2)cc1 [Example 4.52] | 530 nM |
| CC(=O)N[C@@H](C)c1ccc(C2CCN(c3ncc(OCC4CC4(F)F)cn3)CC2)cc1 (stereo partly shown) [Example 4.53] | 160 nM |
| CCC(=O)N[C@@H](C)c1ccc(C2CCN(c3ncc(C4CC4)cn3)CC2)cc1 [Example 4.54] | 1800 nM |
| COC(=O)c1cnc(N2CCC(c3ccc([C@H](C)NC(C)=O)cc3)CC2)s1 [Example 4.101] | 2700 nM |
| CC(=O)N[C@@H](C)c1ccc(C2CCN(c3ncc(C(C)(C)C)s3)CC2)cc1 [Example 4.102] | 470 nM |
| CCCCOc1ccc(N2CCC(c3ccc([C@H](C)NC(C)=O)cc3)CC2)c(C#N)c1 [Example 4.201] | 60 nM |

Source: patent US9006450B2 (Boehringer Ingelheim International GmbH, priority 2010, dated 2015)
